Consider 37 compounds from patent US9481670B2, “Triazine compounds” (Sphaera Pharma PTE. Ltd., priority 2011, dated 2016).

Some results are limits rather than exact numbers.

This experiment deals with T1, PI3K alpha (Homo sapiens, UniProt P42336).
T1 construct: purchased Millipore Upstate
T1 sequence (P42336 whole entry): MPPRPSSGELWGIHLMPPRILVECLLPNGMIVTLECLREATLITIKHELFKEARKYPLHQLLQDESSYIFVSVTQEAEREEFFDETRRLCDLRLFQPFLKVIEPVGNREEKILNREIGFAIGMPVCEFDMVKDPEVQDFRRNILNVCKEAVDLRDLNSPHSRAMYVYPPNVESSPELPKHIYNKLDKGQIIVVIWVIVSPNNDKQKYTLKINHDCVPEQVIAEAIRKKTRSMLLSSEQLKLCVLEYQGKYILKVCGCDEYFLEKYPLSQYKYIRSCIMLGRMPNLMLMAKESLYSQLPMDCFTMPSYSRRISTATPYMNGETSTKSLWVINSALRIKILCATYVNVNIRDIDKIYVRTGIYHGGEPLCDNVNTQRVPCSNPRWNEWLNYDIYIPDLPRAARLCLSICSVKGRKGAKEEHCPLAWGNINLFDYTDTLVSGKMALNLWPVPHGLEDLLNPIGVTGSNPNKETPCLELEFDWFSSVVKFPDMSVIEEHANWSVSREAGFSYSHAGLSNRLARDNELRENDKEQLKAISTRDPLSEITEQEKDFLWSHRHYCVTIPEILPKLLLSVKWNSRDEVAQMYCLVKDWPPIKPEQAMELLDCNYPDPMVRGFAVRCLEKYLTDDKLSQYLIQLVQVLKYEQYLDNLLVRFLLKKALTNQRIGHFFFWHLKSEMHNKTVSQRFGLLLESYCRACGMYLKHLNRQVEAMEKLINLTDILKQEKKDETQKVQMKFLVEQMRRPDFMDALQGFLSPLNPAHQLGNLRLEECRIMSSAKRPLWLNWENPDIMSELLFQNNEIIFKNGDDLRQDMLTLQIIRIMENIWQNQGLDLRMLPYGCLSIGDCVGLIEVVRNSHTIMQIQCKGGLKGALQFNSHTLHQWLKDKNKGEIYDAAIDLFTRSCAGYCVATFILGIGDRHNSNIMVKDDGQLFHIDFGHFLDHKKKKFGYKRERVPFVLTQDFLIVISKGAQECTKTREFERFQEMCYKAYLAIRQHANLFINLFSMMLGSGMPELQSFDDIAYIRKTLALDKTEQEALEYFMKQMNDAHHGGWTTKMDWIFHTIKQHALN
T1 sequence (P27986 whole entry partner): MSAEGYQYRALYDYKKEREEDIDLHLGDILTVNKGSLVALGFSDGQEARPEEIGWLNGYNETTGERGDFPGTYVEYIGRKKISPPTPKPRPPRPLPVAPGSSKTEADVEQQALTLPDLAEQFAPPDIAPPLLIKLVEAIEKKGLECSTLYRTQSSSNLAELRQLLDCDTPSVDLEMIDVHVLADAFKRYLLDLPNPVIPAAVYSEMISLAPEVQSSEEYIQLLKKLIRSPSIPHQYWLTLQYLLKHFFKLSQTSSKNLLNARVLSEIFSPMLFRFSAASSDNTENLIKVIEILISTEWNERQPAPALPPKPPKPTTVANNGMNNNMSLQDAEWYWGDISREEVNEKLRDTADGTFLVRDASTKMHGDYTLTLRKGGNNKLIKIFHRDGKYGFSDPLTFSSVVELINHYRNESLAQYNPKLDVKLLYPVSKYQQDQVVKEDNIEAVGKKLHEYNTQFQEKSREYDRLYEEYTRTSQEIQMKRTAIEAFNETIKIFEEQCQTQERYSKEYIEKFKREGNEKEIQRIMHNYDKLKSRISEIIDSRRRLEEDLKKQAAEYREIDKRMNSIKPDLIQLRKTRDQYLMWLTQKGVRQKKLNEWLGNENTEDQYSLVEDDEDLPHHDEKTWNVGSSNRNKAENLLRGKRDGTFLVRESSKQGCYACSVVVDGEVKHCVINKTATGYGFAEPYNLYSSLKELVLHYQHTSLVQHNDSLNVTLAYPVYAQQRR
The experiment in a line: P110 Alpha TR-FRET Assay (PI3K alpha kinase assay, HTRF Transcreener ADP Assay). The class given is biochemical. As to conditions: PI3K (WT). The method, boiled down: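 HTRF Transcreener ADP read-out of ADP formed by PI3K (50 ng enzyme) in 50 mM HEPES pH 7.5, 5 mM MgCl2, 1 mM DTT, 30 μM Na3VO4. Compound preincubated with enzyme 20 min; reaction started with 10 μM ATP and 5 μM PIP2, run 20 min, then ADP-d2/anti-ADP cryptate detection for 1 h.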
(In TR-FRET formats the signal depends on donor and acceptor labels being close together.)
As usually defined, the IC50 is the concentration at which inhibition is half-maximal. As to `CNC(=O)CNc1nc(-c2cccc(O)c2)nc(N2CCOCC2)n1` [Compound 1168, 2-((4-(3-hydroxyphenyl)-6-morpholino-1,3,5-triazin-2-yl)amino)-N-methylacetamide], the IC50 is less than 5 µM.
The compound `O=C(O)CNc1nc(-c2cccc([N+](=O)[O-])c2)nc(N2CCOCC2)n1` [Compound 1169, 2-((4-morpholino-6-(3-nitrophenyl)-1,3,5-triazin-2-yl)amino)acetic acid] gave an IC50 greater than 5 µM.
`O=C(c1cccc(Nc2nc(-c3cccc4[nH]ncc34)nc(N3CCOCC3)n2)c1)N1CCNCC1` [Compound 1171, (3-((4-(1H-indazol-4-yl)-6-morpholino-1,3,5-triazin-2-yl)amino)phenyl)(piperazin-1-yl)methanone]: the IC50 was less than 5 µM.
Regarding `CN1CCN(C(=O)c2cccc(Nc3nc(-c4cccc5[nH]ncc45)nc(N4CCOCC4)n3)c2)CC1` [Compound 1172, (3-((4-(1H-indazol-4-yl)-6-morpholino-1,3,5-triazin-2-yl)amino)phenyl)(4-methylpiperazin-1-yl)methanone], the IC50 is less than 5 µM.
`O=C(c1cccc(Nc2nc(-c3cccc4[nH]ncc34)nc(N3CCOCC3)n2)c1)N1CCOCC1` [Compound 1173, (3-((4-(1H-indazol-4-yl)-6-morpholino-1,3,5-triazin-2-yl)amino)phenyl)(morpholino)methanone] showed an IC50 of less than 5 µM.
Consider `CCOc1ccc(NC(=O)C2CCN(c3nc(-c4cccc5[nH]ncc45)nc(N4CCOCC4)n3)C2)cc1` (stereo not shown) [Compound 1174, N-(4-23-ethoxyphenyl)-1-12-[4-1-(1H-indazol-4-yl)-6-5-(morpholin-4-yl)-1,3,5-triazin-2-yl]pyrrolidine-3-carboxamide], for which the IC50 is less than 5 µM.
Compound `CC(C)C(Nc1nc(-c2cccc(O)c2)nc(N2CCOCC2)n1)C(=O)O` (stereo not shown) [Compound 1175, 2-((4-(3-hydroxyphenyl)-6-morpholino-1,3,5-triazin-2-yl)amino)-3-methylbutanoic acid] had an IC50 of less than 5 µM.
With `O=C(O)CNc1nc(-c2ccc(O)nc2)nc(N2CCOCC2)n1` [Compound 1176, 2-((4-(6-hydroxypyridin-3-yl)-6-morpholino-1,3,5-triazin-2-yl)amino)acetic acid], the IC50 is greater than 5 µM.
Regarding `CNC(=O)c1ccc(C)c(Nc2nc(-c3cccc4[nH]ncc34)nc(N3CCOCC3)n2)c1` [Compound 1177, 3-((4-(1H-indazol-4-yl)-6-morpholino-1,3,5-triazin-2-yl)amino)-N,4-dimethylbenzamide], the IC50 was less than 5 µM.
The compound `Cc1ccc(C(=O)N(C)C)cc1Nc1nc(-c2cccc3[nH]ncc23)nc(N2CCOCC2)n1` [Compound 1178, 3-((4-(1H-indazol-4-yl)-6-morpholino-1,3,5-triazin-2-yl)amino)-N,N,4-trimethylbenzamide] registered a half-maximal inhibitory concentration (IC50) of less than 5 µM.
In turn, `O=C(O)CNc1nc(-c2ccc(F)nc2)nc(N2CCOCC2)n1` [Compound 1179, 2-((4-(6-fluoropyridin-3-yl)-6-morpholino-1,3,5-triazin-2-yl)amino)acetic acid] came in with an IC50 greater than 5 µM.
With `CN(C)C(=O)N1CCN(Cc2nc(-c3cccc4[nH]ncc34)nc(N3CCOCC3)n2)CC1` [Compound 1180, 4-((4-(1H-1-indazol-4-yl)-6-morpholino-1,3,5-triazin-2-yl)methyl)-N,N-dimethylpiperazine-1-carboxamide], the IC50 is less than 5 µM.
As to `NC(=O)CNc1nc(-c2cccc(O)c2)nc(N2CCOCC2)n1` [Compound 1181, 2-((4-(3-hydroxyphenyl)-6-morpholino-1,3,5-triazin-2-yl)amino)acetamide], the IC50 was less than 5 µM.
In turn, `NC(=O)c1cccn1-c1nc(-c2cccc3[nH]ncc23)nc(N2CCOCC2)n1` [Compound 1182, 1-8-[4-1-(1H-indazol-4-yl)-6-5-(morpholin-4-yl)-1,3,5-triazin-2-yl]-1H-pyrrole-2-carboxamide] returned an IC50 of less than 5 µM.
`COc1cccc(-c2nc(NCC(=O)O)nc(N3CCOCC3)n2)c1` [Compound 1183, 2-((4-(3-methoxyphenyl)-6-morpholino-1,3,5-triazin-2-yl)amino)acetic acid] yielded an IC50 greater than 5 µM.
For `O=C(O)CNc1nc(-c2cccc(NO)c2)nc(N2CCOCC2)n1` [Compound 1184, 2-((4-(3-(hydroxyamino)phenyl)-6-morpholino-1,3,5-triazin-2-yl)amino)acetic acid] the value was greater than 5 µM.
Regarding `CN(C)C(=O)CNc1nc(-c2ccc(N)cc2)nc(N2CCOCC2)n1` [Compound 1185, 2-((4-(4-aminophenyl)-6-morpholino-1,3,5-triazin-2-yl)amino)-N,N-dimethylacetamide], the IC50 is greater than 5 µM.
For `Cc1c(Nc2nc(-c3cccc4[nH]ncc34)nc(N3CCOCC3)n2)cccc1C(N)=O` [Compound 1186, 3-((4-(1H-indazol-4-yl)-6-morpholino-1,3,5-triazin-2-yl)amino)-2-methylbenzamide] the value was less than 5 µM; for `CC(Nc1nc(-c2cccc(O)c2)nc(N2CCOCC2)n1)C(=O)O` (stereo not shown) [Compound 1187, 2-((4-(3-hydroxyphenyl)-6-morpholino-1,3,5-triazin-2-yl)amino)propanoic acid], less than 5 µM; for `CC(C)(Nc1nc(-c2cccc(O)c2)nc(N2CCOCC2)n1)C(=O)O` [Compound 1188, 2-((4-(3-hydroxyphenyl)-6-morpholino-1,3,5-triazin-2-yl)amino)-2-methylpropanoic acid], less than 5 µM.
In the case of `CN(C)C(=O)c1cccc(Nc2nc(-c3cccc4[nH]ncc34)nc(N3CCOCC3)n2)c1` [Compound 1190, 3-((4-(1H-indazol-4-yl)-6-morpholino-1,3,5-triazin-2-yl)amino)-N,N-dimethylbenzamide] it was less than 5 µM; in that of `CS(=O)(=O)N1CCN(C(=O)CCNc2nc(-c3cccc4[nH]ncc34)nc(N3CCOCC3)n2)CC1` [Compound 1191, 3-((4-(1H-indazol-4-yl)-6-morpholino-1,3,5-triazin-2-yl)amino)-1-(4-(methylsulfonyl)piperazin-1-yl)propan-1-one], less than 5 µM.
`CN(CC(=O)O)c1nc(-c2cccc(O)c2)nc(N2CCOCC2)n1` [Compound 1192, 2-((4-(3-hydroxyphenyl)-6-morpholino-1,3,5-triazin-2-yl)(methyl)amino)acetic acid] returned an IC50 of less than 5 µM.
As to `NC(=O)Cc1ccccc1Nc1nc(-c2cccc3[nH]ncc23)nc(N2CCOCC2)n1` [Compound 1194, 2-(2-((4-(1H-indazol-4-yl)-6-morpholino-1,3,5-triazin-2-yl)amino)phenyl)acetamide], the IC50 is less than 5 µM.
The compound `NC(=O)Cc1cccc(Nc2nc(-c3cccc4[nH]ncc34)nc(N3CCOCC3)n2)c1` [Compound 1195, 2-(3-((4-(1H-indazol-4-yl)-6-morpholino-1,3,5-triazin-2-yl)amino)phenyl)acetamide] yielded an IC50 of less than 5 µM.
In the case of `O=C1NCC2CN(c3nc(-c4cccc5[nH]ncc45)nc(N4CCOCC4)n3)CCC12` (stereo not shown) [Compound 1196, 5-8-[4-1-(1H-indazol-4-yl)-6-5-(morpholin-4-yl)-1,3,5-triazin-2-yl]-octahydro-1H-pyrrolo[3,4-c]pyridin-1-one], the IC50 is less than 5 µM.
For `COC(=O)CNc1nc(-c2cccc(N)c2)nc(N2CCOCC2)n1` [Compound 1197, methyl 2-((4-(3-aminophenyl)-6-morpholino-1,3,5-triazin-2-yl)amino)acetate] the value was less than 5 µM.
As for `NC(=O)c1ccccc1Nc1nc(-c2cccc3[nH]ncc23)nc(N2CCOCC2)n1` [Compound 1198, 2-((4-(1H-indazol-4-yl)-6-morpholino-1,3,5-triazin-2-yl)amino)benzamide], the IC50 is greater than 5 µM.
The compound `Nc1cccc(-c2nc(NCC(=O)O)nc(N3CCOCC3)n2)c1` [Compound 1199, 2-((4-(3-aminophenyl)-6-morpholino-1,3,5-triazin-2-yl)amino)acetic acid] came in with an IC50 greater than 5 µM.
For the compound `CN(c1cccc(C(N)=O)c1)c1nc(-c2cccc3[nH]ncc23)nc(N2CCOCC2)n1` [Compound 1200, 3-((4-(1H-indazol-4-yl)-6-morpholino-1,3,5-triazin-2-yl)(methyl)amino)benzamide], the half-inhibitory concentration (IC50) is less than 5 µM.
`NC(=O)c1cccc(Nc2nc(-c3cccc4[nH]ncc34)nc(N3CCOCC3)n2)c1` [Compound 1201, 3-((4-(1H-indazol-4-yl)-6-morpholino-1,3,5-triazin-2-yl)amino)benzamide] gave an IC50 of less than 5 µM.
In turn, `O=C(O)c1cccc(Nc2nc(-c3cccc4[nH]ncc34)nc(N3CCOCC3)n2)c1` [Compound 1202, 3-((4-(1H-indazol-4-yl)-6-morpholino-1,3,5-triazin-2-yl)amino)benzoic acid] showed an IC50 of less than 5 µM.
In the case of `O=C(O)CNc1nc(-c2ccccc2)nc(N2CCOCC2)n1` [Compound 1203, 2-((4-morpholino-6-phenyl-1,3,5-triazin-2-yl)amino)acetic acid] it was greater than 5 µM; in that of `CN(C)C(=O)c1ccc(Nc2nc(-c3cccc4[nH]ncc34)nc(N3CCOCC3)n2)cc1` [Compound 1204, 4-((4-(1H-indazol-4-yl)-6-morpholino-1,3,5-triazin-2-yl)amino)-N,N-dimethylbenzamide], less than 5 µM.
For the compound `c1cc(Nc2nc(-c3cccc4[nH]ncc34)nc(N3CCOCC3)n2)c2cn[nH]c2c1` [Compound 1205, N-(4-(1H-indazol-4-yl)-6-morpholino-1,3,5-triazin-2-yl)-1H-indazol-4-amine], the IC50 is less than 5 µM.
In the case of `O=C1CCN(c2nc(-c3cccc4[nH]ncc34)nc(N3CCOCC3)n2)CCN1` [Compound 1206, 1-21-[4-1-(1H-indazol-4-yl)-6-5-(morpholin-4-yl)-1,3,5-triazin-2-yl]-1,4-diazepan-5-one], the IC50 is less than 5 µM.
`COC(=O)C1CCN(c2nc(-c3cccc4[nH]ncc34)nc(N3CCOCC3)n2)C1` (stereo not shown) [Compound 1207, methyl 1-12-[4-1-(1H-indazol-4-yl)-6-5-(morpholin-4-yl)-1,3,5-triazin-2-yl]pyrrolidine-3-carboxylate] yielded an IC50 of less than 5 µM.
